Results published in PubChem BioAssay AID1259407 (Chemical Carcinogenesis Research Information System (CCRIS), 2018).
Activity calls are given as the source filed them. How the calls were made is not given here.

System: CCRIS mutagenicity, Ames/micronucleus/aberration tests
Experiment: CCRIS mutagenicity studies
[1] = Test System: AMES SALMONELLA TYPHIMURIUM, Strain/Indicator: TA98, Metabolic Activation: NONE, Method: PREINCUBATION
[2] = Test System: AMES SALMONELLA TYPHIMURIUM, Strain/Indicator: TA98, Metabolic Activation: NONE, Method: STANDARD PLATE
[3] = Test System: AMES SALMONELLA TYPHIMURIUM, Strain/Indicator: TA100, Metabolic Activation: NONE, Method: PREINCUBATION
[4] = Test System: AMES SALMONELLA TYPHIMURIUM, Strain/Indicator: TA100, Metabolic Activation: NONE, Method: STANDARD PLATE
[5] = Test System: AMES SALMONELLA TYPHIMURIUM, Strain/Indicator: TA98, Metabolic Activation: RAT, LIVER, S-9, AROCLOR 1254, Method: STANDARD PLATE
[6] = Test System: AMES SALMONELLA TYPHIMURIUM, Strain/Indicator: TA100, Metabolic Activation: RAT, LIVER, S-9, AROCLOR 1254, Method: STANDARD PLATE
[7] = Test System: AMES SALMONELLA TYPHIMURIUM, Strain/Indicator: TA1537, Metabolic Activation: NONE, Method: STANDARD PLATE
[8] = Test System: AMES SALMONELLA TYPHIMURIUM, Strain/Indicator: TA1537, Metabolic Activation: RAT, LIVER, S-9, AROCLOR 1254, Method: STANDARD PLATE

Measured: mutagenic call

O=[N+]([O-])c1ccc2c(c1)oc1ccccc12
active: Test System: AMES SALMONELLA TYPHIMURIUM, Strain/Indicator: TA98(1,8-DNP6), Metabolic Activation: NONE, Method: PREINCUBATION active; positive | Test System: AMES SALMONELLA TYPHIMURIUM, Strain/Indicator: TA98(1,8-DNP6), Metabolic Activation: NONE, Method: SUSPENSION active; positive | Test System: AMES SALMONELLA TYPHIMURIUM, Strain/Indicator: TA98(1,8-DNP6), Metabolic Activation: RAT, LIVER, S-9, PCB (5%), Method: PREINCUBATION active; positive | Test System: AMES SALMONELLA TYPHIMURIUM, Strain/Indicator: TA98(NR), Metabolic Activation: NONE, Method: PREINCUBATION active; positive | Test System: AMES SALMONELLA TYPHIMURIUM, Strain/Indicator: TA98(NR), Metabolic Activation: NONE, Method: SUSPENSION active; positive | Test System: AMES SALMONELLA TYPHIMURIUM, Strain/Indicator: TA98(NR), Metabolic Activation: RAT, LIVER, S-9 (10%), Method: PREINCUBATION active; positive | Test System: AMES SALMONELLA TYPHIMURIUM, Strain/Indicator: TA98(NR), Metabolic Activation: RAT, LIVER, S-9, 3-METHYLCHOLANTHRENE (10%), Method: PREINCUBATION active; positive | Test System: AMES SALMONELLA TYPHIMURIUM, Strain/Indicator: TA98(NR), Metabolic Activation: RAT, LIVER, S-9, BETA-NAPHTHOFLAVONE (10%), Method: PREINCUBATION active; positive | Test System: AMES SALMONELLA TYPHIMURIUM, Strain/Indicator: TA98(NR), Metabolic Activation: RAT, LIVER, S-9, PCB (5%), Method: PREINCUBATION active; positive | Test System: AMES SALMONELLA TYPHIMURIUM, Strain/Indicator: TA98(NR), Metabolic Activation: RAT, LIVER, S-9, PCB (10%), Method: PREINCUBATION active; positive | Test System: AMES SALMONELLA TYPHIMURIUM, Strain/Indicator: TA98(NR), Metabolic Activation: RAT, LIVER, S-9, PHENOBARBITAL (10%), Method: PREINCUBATION active; positive | [1] active; positive | [2] active; positive | Test System: AMES SALMONELLA TYPHIMURIUM, Strain/Indicator: TA98, Metabolic Activation: NONE, Method: SUSPENSION active; positive | Test System: AMES SALMONELLA TYPHIMURIUM, Strain/Indicator: TA98, Metabolic Activation: RAT, LIVER, S-9, PCB (5%), Method: PREINCUBATION active; positive | Test System: AMES SALMONELLA TYPHIMURIUM, Strain/Indicator: TA98, Metabolic Activation: RAT, LIVER, S-9, PCB, Method: SUSPENSION active; positive | Test System: AMES SALMONELLA TYPHIMURIUM, Strain/Indicator: TA98, Metabolic Activation: S-9, PHENOBARBITAL AND 5,6-BENZOFLAVONE, Method: STANDARD PLATE active; positive | [4] active; positive | Test System: AMES SALMONELLA TYPHIMURIUM, Strain/Indicator: TA100, Metabolic Activation: NONE, Method: SUSPENSION active; positive | Test System: AMES SALMONELLA TYPHIMURIUM, Strain/Indicator: TA100, Metabolic Activation: S-9, PHENOBARBITAL AND 5,6-BENZOFLAVONE, Method: STANDARD PLATE active; positive
inactive: [3] inactive; negative | Test System: AMES SALMONELLA TYPHIMURIUM, Strain/Indicator: TA100, Metabolic Activation: RAT, LIVER, S-9, PCB (5%), Method: PREINCUBATION inactive; negative | Test System: AMES SALMONELLA TYPHIMURIUM, Strain/Indicator: TA100, Metabolic Activation: RAT, LIVER, S-9, PCB, Method: SUSPENSION inactive; negative

CCCCC(CC)COS(=O)(=O)O (stereo unspecified)
inactive: End Point: IN VITRO CHROMOSOMAL ABERRATIONS, Test System: CHO-LB CELLS, Metabolic Activation: NONE inactive; negative | End Point: IN VITRO CHROMOSOMAL ABERRATIONS, Test System: CHO-LB CELLS, Metabolic Activation: RAT, LIVER, S-9, AROCLOR 1254 inactive; negative | Test System: AMES SALMONELLA TYPHIMURIUM, Strain/Indicator: TA98, Metabolic Activation: HAMSTER, LIVER, S-9, AROCLOR 1254 (10%), Method: PREINCUBATION inactive; negative | [1] inactive; negative | Test System: AMES SALMONELLA TYPHIMURIUM, Strain/Indicator: TA98, Metabolic Activation: RAT, LIVER, S-9, AROCLOR 1254 (10%), Method: PREINCUBATION inactive; negative | Test System: AMES SALMONELLA TYPHIMURIUM, Strain/Indicator: TA100, Metabolic Activation: HAMSTER, LIVER, S-9, AROCLOR 1254 (10%), Method: PREINCUBATION inactive; negative | [3] inactive; negative | Test System: AMES SALMONELLA TYPHIMURIUM, Strain/Indicator: TA100, Metabolic Activation: RAT, LIVER, S-9, AROCLOR 1254 (10%), Method: PREINCUBATION inactive; negative | Test System: AMES SALMONELLA TYPHIMURIUM, Strain/Indicator: TA1535, Metabolic Activation: HAMSTER, LIVER, S-9, AROCLOR 1254 (10%), Method: PREINCUBATION inactive; negative | Test System: AMES SALMONELLA TYPHIMURIUM, Strain/Indicator: TA1535, Metabolic Activation: NONE, Method: PREINCUBATION inactive; negative | Test System: AMES SALMONELLA TYPHIMURIUM, Strain/Indicator: TA1535, Metabolic Activation: RAT, LIVER, S-9, AROCLOR 1254 (10%), Method: PREINCUBATION inactive; negative | Test System: AMES SALMONELLA TYPHIMURIUM, Strain/Indicator: TA1537, Metabolic Activation: HAMSTER, LIVER, S-9, AROCLOR 1254 (10%), Method: PREINCUBATION inactive; negative | Test System: AMES SALMONELLA TYPHIMURIUM, Strain/Indicator: TA1537, Metabolic Activation: NONE, Method: PREINCUBATION inactive; negative | Test System: AMES SALMONELLA TYPHIMURIUM, Strain/Indicator: TA1537, Metabolic Activation: RAT, LIVER, S-9, AROCLOR 1254 (10%), Method: PREINCUBATION inactive; negative | Test System: MOUSE LYMPHOMA, Strain/Indicator: L5178Y (TK+/TK-), Metabolic Activation: NONE, Method: SUSPENSION/PLATE inactive; negative | Test System: MOUSE LYMPHOMA, Strain/Indicator: L5178Y (TK+/TK-), Metabolic Activation: RAT, LIVER, S-9, AROCLOR 1254, Method: SUSPENSION/PLATE inactive; negative

COC(=O)Nc1nc2ccc(O)cc2[nH]1
inactive: [2] inactive; negative | [5] inactive; negative | [4] inactive; negative | [6] inactive; negative | Test System: AMES SALMONELLA TYPHIMURIUM, Strain/Indicator: TA1535, Metabolic Activation: NONE, Method: STANDARD PLATE inactive; negative | Test System: AMES SALMONELLA TYPHIMURIUM, Strain/Indicator: TA1535, Metabolic Activation: RAT, LIVER, S-9, AROCLOR 1254, Method: STANDARD PLATE inactive; negative | [7] inactive; negative | [8] inactive; negative

O[C@@H]1[C@H]2O[C@H]2c2c(ccc3ccc4ccccc4c23)[C@H]1O
active: Test System: E. COLI, Strain/Indicator: CL101P, Metabolic Activation: NONE, Method: PREINCUBATION active; positive | Test System: E. COLI, Strain/Indicator: CL102P, Metabolic Activation: NONE, Method: PREINCUBATION active; positive | Test System: E. COLI, Strain/Indicator: CL103P, Metabolic Activation: NONE, Method: PREINCUBATION active; positive | Test System: E. COLI, Strain/Indicator: CL104P, Metabolic Activation: NONE, Method: PREINCUBATION active; positive | Test System: E. COLI, Strain/Indicator: CL105P, Metabolic Activation: NONE, Method: PREINCUBATION active; positive | Test System: E. COLI, Strain/Indicator: CL106P, Metabolic Activation: NONE, Method: PREINCUBATION active; positive

C1COCCOCCOCCOCCO1
inactive: [2] inactive; negative | [5] inactive; negative | [4] inactive; negative | [6] inactive; negative | Test System: AMES SALMONELLA TYPHIMURIUM, Strain/Indicator: TA1530, Metabolic Activation: NONE, Method: STANDARD PLATE inactive; negative | Test System: AMES SALMONELLA TYPHIMURIUM, Strain/Indicator: TA1530, Metabolic Activation: RAT, LIVER, S-9, AROCLOR 1254, Method: STANDARD PLATE inactive; negative | [7] inactive; negative | [8] inactive; negative
